{"source": "patent US11571429B2", "about": "“Method and compounds for treating peripheral neuropathy” (UPEXMED CO. LTD., priority 2017, dated 2023)", "origin": "cited, not measured here", "system": "diabetic neuropathy pain", "conditions": "taken orally", "data": [{"smiles": "CN(C)CCC=C1c2ccccc2CCc2ccccc21", "note": "[Amitriptyline, amitriptyline]", "values": [{"measurement": "NNT; number of patients needed to treat for at least 50% pain relief", "result": 1.3}]}]}
